According to patent publication US12643880B2, “Heterobifunctional molecules as TEAD inhibitors” (Genentech, Inc., priority 2020, dated 2026):
Counter-ions that a name gives are not always drawn. Values belong to the molecule of their own block, whether it stands above or below them.

Experiments:
Format in all cases: binding
Conditions in all cases: His-tagged TEAD protein, biotinylated lipid pocket probe
[1] = target: TEAD1 (Homo sapiens, UniProt P28347); test: TEAD lipid pocket TR-FRET (Lipid HTRF) competition assay, TEAD1
Chain of TEAD1 (P28347 whole entry, species assumed): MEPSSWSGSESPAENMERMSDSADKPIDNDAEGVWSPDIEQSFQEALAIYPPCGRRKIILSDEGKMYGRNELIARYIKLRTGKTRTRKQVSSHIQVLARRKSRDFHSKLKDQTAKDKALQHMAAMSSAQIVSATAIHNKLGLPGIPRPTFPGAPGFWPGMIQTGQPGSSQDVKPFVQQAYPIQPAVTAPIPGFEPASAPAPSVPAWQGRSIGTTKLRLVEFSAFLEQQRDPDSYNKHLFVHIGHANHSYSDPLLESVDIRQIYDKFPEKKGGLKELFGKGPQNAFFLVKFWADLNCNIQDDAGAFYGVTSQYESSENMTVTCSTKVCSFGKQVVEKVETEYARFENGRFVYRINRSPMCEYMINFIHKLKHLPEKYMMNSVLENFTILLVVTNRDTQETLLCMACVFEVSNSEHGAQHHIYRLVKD
Protocol: (§1) His-tagged TEAD proteins are pre-incubated with TEAD project compounds for 30 minutes at room temperature. Biotinylated lipid pocket probes are then added to the TEAD/Compound mixture and incubated for 60 minutes at room temperature. The lipid pocket probe competes with the test compound for the TEAD lipid pocket until equilibrium is reached. After 60 minutes, Europium labelled anti-His (Perkin Elmer #ADO 110) and XL665 labelled streptavidin (CIS Bio 610SAXAC) are added to the TEAD/test compound/lipid pocket mixture and incubated for 30 minutes. TR-FRET values are then measured using an EnVision multi-label plate reader (Perkin Elmer Cat #2104-1A.) If the lipid pocket probe binds to TEAD as expected, a TR-FRET signal results from the proximity of Tani-His Eu and XL665. If a TEAD lipid pocket binder such as binds and displaces the lipid pocket probe, the disruption of the TEAD:probe interaction results in a decrease in TR-FRET signal. The potency of compounds as TEAD lipid pocket binders is determined by IC50 value generated using a non-linear 4 parameter curve fit. This assay format enables more sensitive determinations of lipid pocket affinity than the aforementioned TEAD lipid pocket FP assay due to the decreased concentration of TEAD protein required for the TR-FRET assay format.

[2] = target: TEAD2 (Homo sapiens, UniProt Q15562); test: TEAD lipid pocket TR-FRET (Lipid HTRF) competition assay, TEAD2
Chain of TEAD2 (Q15562 whole entry, species assumed): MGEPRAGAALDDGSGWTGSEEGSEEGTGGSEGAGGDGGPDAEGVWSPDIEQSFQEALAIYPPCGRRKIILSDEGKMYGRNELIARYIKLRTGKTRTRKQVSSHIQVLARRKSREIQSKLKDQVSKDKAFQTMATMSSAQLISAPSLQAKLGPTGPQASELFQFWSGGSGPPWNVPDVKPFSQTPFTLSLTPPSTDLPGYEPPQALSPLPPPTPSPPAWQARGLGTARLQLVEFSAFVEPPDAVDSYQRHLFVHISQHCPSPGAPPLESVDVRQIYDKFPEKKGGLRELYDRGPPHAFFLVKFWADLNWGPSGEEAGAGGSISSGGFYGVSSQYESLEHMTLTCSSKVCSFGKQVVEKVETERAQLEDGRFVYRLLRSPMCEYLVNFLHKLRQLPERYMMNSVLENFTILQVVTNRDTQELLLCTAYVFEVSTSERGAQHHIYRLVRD
Protocol: as §1

[3] = target: TEAD3 (Homo sapiens, UniProt Q99594); test: TEAD lipid pocket TR-FRET (Lipid HTRF) competition assay, TEAD3
Chain of TEAD3 (Q99594 whole entry, species assumed): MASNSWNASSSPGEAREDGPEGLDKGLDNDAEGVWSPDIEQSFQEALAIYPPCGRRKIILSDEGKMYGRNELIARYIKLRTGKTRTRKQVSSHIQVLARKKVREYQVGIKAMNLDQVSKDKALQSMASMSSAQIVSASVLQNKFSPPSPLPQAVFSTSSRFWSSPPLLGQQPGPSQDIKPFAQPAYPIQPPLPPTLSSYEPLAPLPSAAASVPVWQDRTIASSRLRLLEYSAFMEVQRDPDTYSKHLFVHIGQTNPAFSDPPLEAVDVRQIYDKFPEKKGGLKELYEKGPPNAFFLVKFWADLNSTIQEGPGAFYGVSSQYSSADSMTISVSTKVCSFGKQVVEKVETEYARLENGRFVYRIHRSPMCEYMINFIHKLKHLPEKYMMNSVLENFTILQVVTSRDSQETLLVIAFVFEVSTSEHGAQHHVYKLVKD
Protocol: as §1

[4] = target: TEAD4 (Homo sapiens, UniProt Q15561); test: TEAD lipid pocket TR-FRET (Lipid HTRF) competition assay, TEAD4
Chain of TEAD4 (Q15561 whole entry, species assumed): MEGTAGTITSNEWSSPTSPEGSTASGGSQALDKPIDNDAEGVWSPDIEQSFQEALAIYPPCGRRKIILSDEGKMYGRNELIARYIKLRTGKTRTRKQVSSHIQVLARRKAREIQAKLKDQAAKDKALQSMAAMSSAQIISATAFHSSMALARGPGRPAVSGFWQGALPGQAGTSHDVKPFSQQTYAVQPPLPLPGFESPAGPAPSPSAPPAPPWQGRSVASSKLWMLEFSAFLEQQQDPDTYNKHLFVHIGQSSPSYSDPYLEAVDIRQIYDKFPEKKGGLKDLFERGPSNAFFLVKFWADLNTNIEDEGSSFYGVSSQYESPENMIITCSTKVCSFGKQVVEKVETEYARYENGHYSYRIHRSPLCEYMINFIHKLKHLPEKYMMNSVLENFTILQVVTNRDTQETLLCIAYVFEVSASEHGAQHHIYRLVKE
Protocol: as §1

SMILES: CN[C@@H](C)C(=O)N[C@H](C(=O)N1CCC[C@H]1C(=O)Nc1sc(NC(=O)COCCOCCOCCOCCN(C)C(=O)Cc2cccc(CNC(=O)c3cc(/C=C/[C@H]4CC[C@H](C(F)(F)F)CC4)c(OC)cn3)c2)nc1-c1ccccc1)C1CCCCC1 [Compound 18, N-(3-(17-((5-((S)-1-((S)-2-Cyclohexyl-2-((S)-2-(methylamino)propanamido)acetyl)pyrrolidine-2-carboxamido)-4-phenylthiazol-2-yl)amino)-3-methyl-2,17-dioxo-6,9,12,15-tetraoxa-3-azaheptadecyl)benzyl)-5-methoxy-4-((E)-2-(trans-4-(trifluoromethyl)cyclohexyl)vinyl)picolinamide]
IC50 [1]: 600 nM | IC50 [2]: 490 nM | IC50 [3]: 4800 nM | IC50 [4]: 140 nM

SMILES: COc1cnc(C(=O)NCc2cccc(CC(=O)N(C)CCCCCCOc3ccc4c(c3)C(=O)N(C3CCC(=O)NC3=O)C4=O)c2)cc1/C=C/[C@H]1CC[C@H](C(F)(F)F)CC1 (stereo partly drawn) [Compound 2, N-(3-(2-((6-((2-(2,6-Dioxopiperidin-3-yl)-1,3-dioxoisoindolin-5-yl)oxy)hexyl)(methyl)amino)-2-oxoethyl)benzyl)-5-methoxy-4-((E)-2-(trans-4-(trifluoromethyl)cyclohexyl)vinyl)picolinamide]
IC50 [1]: 5750 nM | IC50 [2]: 1150 nM | IC50 [3]: 18800 nM | IC50 [4]: 400 nM

SMILES: COc1cnc(C(=O)NCc2cccc(CC(=O)N(C)CCOCCOCCOCCOCCOc3ccc4c(c3)C(=O)N(C3CCC(=O)NC3=O)C4=O)c2)cc1/C=C/[C@H]1CC[C@H](C(F)(F)F)CC1 (stereo partly drawn) [Compound 4, N-(3-(17-((2-(2,6-Dioxopiperidin-3-yl)-1,3-dioxoisoindolin-5-yl)oxy)-3-methyl-2-oxo-6,9,12,15-tetraoxa-3-azaheptadecyl)benzyl)-5-methoxy-4-((E)-2-(trans-4-(trifluoromethyl)cyclohexyl)vinyl)picolinamide]
IC50 [1]: 280 nM | IC50 [2]: 200 nM | IC50 [3]: 1830 nM | IC50 [4]: 70 nM

SMILES: COc1cnc(C(=O)NCc2cccc(CC(=O)N(C)CCCOc3ccc4c(c3)C(=O)N(C3CCC(=O)NC3=O)C4=O)c2)cc1/C=C/[C@H]1CC[C@H](C(F)(F)F)CC1 (stereo partly drawn) [Compound 8, N-(3-(2-((3-((2-(2,6-Dioxopiperidin-3-yl)-1,3-dioxoisoindolin-5-yl)oxy)propyl)(methyl)amino)-2-oxoethyl)benzyl)-5-methoxy-4-((E)-2-(trans-4-(trifluoromethyl)cyclohexyl)vinyl)picolinamide]
IC50 [1]: 720 nM | IC50 [2]: 290 nM | IC50 [3]: 8200 nM | IC50 [4]: 180 nM

SMILES: CN[C@@H](C)C(=O)N[C@H](C(=O)N1CCC[C@H]1C(=O)Nc1sc(NC(=O)COCCOCCOCCOCCOCCOCCN(C)C(=O)Cc2cccc(CNC(=O)c3cc(/C=C/[C@H]4CC[C@H](C(F)(F)F)CC4)c(OC)cn3)c2)nc1-c1ccccc1)C1CCCCC1 [Compound 20, N-(3-(23-((5-((S)-1-((S)-2-Cyclohexyl-2-((S)-2-(methylamino)propanamido)acetyl)pyrrolidine-2-carboxamido)-4-phenylthiazol-2-yl)amino)-3-methyl-2,23-dioxo-6,9,12,15,18,21-hexaoxa-3-azatricosyl)benzyl)-5-methoxy-4-((E)-2-(trans-4-(trifluoromethyl)cyclohexyl)vinyl)picolinamide formate]
IC50 [1]: 510 nM | IC50 [2]: 340 nM | IC50 [3]: 4300 nM | IC50 [4]: 130 nM

SMILES: COc1cnc(C(=O)NCc2cccc(CC(=O)N(C)CCOCCOCCOCCOc3ccc4c(c3)C(=O)N(C3CCC(=O)NC3=O)C4=O)c2)cc1/C=C/[C@H]1CC[C@H](C(F)(F)F)CC1 (stereo partly drawn) [Compound 3, N-(3-(14-((2-(2,6-Dioxopiperidin-3-yl)-1,3-dioxoisoindolin-5-yl)oxy)-3-methyl-2-oxo-6,9,12-trioxa-3-azatetradecyl)benzyl)-5-methoxy-4-((E)-2-(trans-4-(trifluoromethyl)cyclohexyl)vinyl)picolinamide]
IC50 [1]: 300 nM | IC50 [2]: 130 nM | IC50 [3]: 4800 nM | IC50 [4]: 60 nM

SMILES: COc1cnc(C(=O)NCc2cccc(CC(=O)N(C)CCOCCOCCOCCOCCOCCOc3ccc4c(c3)C(=O)N(C3CCC(=O)NC3=O)C4=O)c2)cc1/C=C/[C@H]1CC[C@H](C(F)(F)F)CC1 (stereo partly drawn) [Compound 7, N-(3-(20-((2-(2,6-Dioxopiperidin-3-yl)-1,3-dioxoisoindolin-5-yl)oxy)-3-methyl-2-oxo-6,9,12,15,18-pentaoxa-3-azaicosyl)benzyl)-5-methoxy-4-((E)-2-(trans-4-(trifluoromethyl)cyclohexyl)vinyl)picolinamide]
IC50 [1]: 360 nM | IC50 [2]: 110 nM | IC50 [3]: 2000 nM | IC50 [4]: 60 nM

The next lines start with the values.

IC50 [1]: 1300 nM | IC50 [2]: 1000 nM | IC50 [3]: 6200 nM | IC50 [4]: 430 nM
SMILES: CN[C@@H](C)C(=O)N[C@H](C(=O)N1CCC[C@H]1C(=O)Nc1sc(NC(=O)CCCN(C)C(=O)Cc2cccc(CNC(=O)c3cc(/C=C/[C@H]4CC[C@H](C(F)(F)F)CC4)c(OC)cn3)c2)nc1-c1ccccc1)C1CCCCC1 [Compound 21, N-(3-(2-((4-((5-((S)-1-((S)-2-Cyclohexyl-2-((S)-2-(methylamino)propanamido)acetyl)pyrrolidine-2-carboxamido)-4-phenylthiazol-2-yl)amino)-4-oxobutyl)(methyl)amino)-2-oxoethyl)benzyl)-5-methoxy-4-((E)-2-(trans-4-(trifluoromethyl)cyclohexyl)vinyl)picolinamide]

IC50 [1]: 980 nM | IC50 [2]: 460 nM | IC50 [3]: 4030 nM | IC50 [4]: 220 nM
SMILES: COc1cnc(C(=O)NCc2cccc(CC(=O)NCCCCCCCCC(=O)N[C@H](C(=O)N3C[C@H](O)C[C@H]3C(=O)NCc3ccc(-c4scnc4C)cc3)C(C)(C)C)c2)cc1/C=C/[C@H]1CC[C@H](C(F)(F)F)CC1 [Compound 13, N-(3-(2-((9-(((S)-1-((2S,4R)-4-Hydroxy-2-((4-(4-methylthiazol-5-yl)benzyl)carbamoyl)pyrrolidin-1-yl)-3,3-dimethyl-1-oxobutan-2-yl)amino)-9-oxononyl)amino)-2-oxoethyl)benzyl)-5-methoxy-4-((E)-2-(trans-4-(trifluoromethyl)cyclohexyl)vinyl)picolinamide]

IC50 [1]: 280 nM | IC50 [2]: 90 nM | IC50 [3]: 1500 nM | IC50 [4]: 40 nM
SMILES: COc1cnc(C(=O)NCc2cccc(CC(=O)NCCOCCOCCOCCOCCOCC(=O)N[C@H](C(=O)N3C[C@H](O)C[C@H]3C(=O)NCc3ccc(-c4scnc4C)cc3)C(C)(C)C)c2)cc1/C=C/[C@H]1CC[C@H](C(F)(F)F)CC1 [Compound 17, N-(3-((S)-22-((2S,4R)-4-Hydroxy-2-((4-(4-methylthiazol-5-yl)benzyl)carbamoyl)pyrrolidine-1-carbonyl)-23,23-dimethyl-2,20-dioxo-6,9,12,15,18-pentaoxa-3,21-diazatetracosyl)benzyl)-5-methoxy-4-((E)-2-(trans-4-(trifluoromethyl)cyclohexyl)vinyl)picolinamide]

IC50 [1]: 700 nM | IC50 [2]: 370 nM | IC50 [3]: 2530 nM | IC50 [4]: 170 nM
SMILES: COc1cnc(C(=O)NCc2cccc(CC(=O)NCCCCC(=O)N[C@H](C(=O)N3C[C@H](O)C[C@H]3C(=O)NCc3ccc(-c4scnc4C)cc3)C(C)(C)C)c2)cc1/C=C/[C@H]1CC[C@H](C(F)(F)F)CC1 [Compound 11, N-(3-(2-((5-(((S)-1-((2S,4R)-4-Hydroxy-2-((4-(4-methylthiazol-5-yl)benzyl)carbamoyl)pyrrolidin-1-yl)-3,3-dimethyl-1-oxobutan-2-yl)amino)-5-oxopentyl)amino)-2-oxoethyl)benzyl)-5-methoxy-4-((E)-2-(trans-4-(trifluoromethyl)cyclohexyl)vinyl)picolinamide]

IC50 [1]: 600 nM | IC50 [2]: 380 nM | IC50 [3]: 3630 nM | IC50 [4]: 170 nM
SMILES: COc1cnc(C(=O)NCc2cccc(CC(=O)NCCOCCOCCOCC(=O)N[C@H](C(=O)N3C[C@H](O)C[C@H]3C(=O)NCc3ccc(-c4scnc4C)cc3)C(C)(C)C)c2)cc1/C=C/[C@H]1CC[C@H](C(F)(F)F)CC1 [Compound 15, N-(3-((S)-16-((2S,4R)-4-Hydroxy-2-((4-(4-methylthiazol-5-yl)benzyl)carbamoyl)pyrrolidine-1-carbonyl)-17,17-dimethyl-2,14-dioxo-6,9,12-trioxa-3,15-diazaoctadecyl)benzyl)-5-methoxy-4-((E)-2-(trans-4-(trifluoromethyl)cyclohexyl)vinyl)picolinamide]

IC50 [1]: 350 nM | IC50 [2]: 160 nM | IC50 [3]: 2570 nM | IC50 [4]: 60 nM
SMILES: COc1cnc(C(=O)NCc2cccc(CC(=O)NCCOCCOCCOCCOCC(=O)N[C@H](C(=O)N3C[C@H](O)C[C@H]3C(=O)NCc3ccc(-c4scnc4C)cc3)C(C)(C)C)c2)cc1/C=C/[C@H]1CC[C@H](C(F)(F)F)CC1 [Compound 16, N-(3-((S)-19-((2S,4R)-4-Hydroxy-2-((4-(4-methylthiazol-5-yl)benzyl)carbamoyl)pyrrolidine-1-carbonyl)-20,20-dimethyl-2,17-dioxo-6,9,12,15-tetraoxa-3,18-diazahenicosyl)benzyl)-5-methoxy-4-((E)-2-(trans-4-(trifluoromethyl)cyclohexyl)vinyl)picolinamide]
